Test results: patent publication US20250276034A1, “RELEASE-CONTROLLED TOPICAL INJECTION COMPOSITION CONTAINING CYCLIC PEPTIDE AND PREPARATION METHOD THEREFOR” (ORIENTBIO INC., priority 2021, published 2025)
Values after ≈ are worked out from the molar mass of the structure shown.

Key:
[1] = Determination of crystallinity by X-ray diffraction (XRD); assay type: physicochemical; conditions: raw powder and after evaporation or drowning-out crystallization
Procedure: XRD measurement conditions and a crystallization method used in this experiment are as follows.
X-ray diffractometer (model name: MiniFlex, Rigaku, Tokyo, Japan/-X-ray generator: graphite monochromatized Cu Kα radiation (λ=1.5418 Å, 2θ range: from 10° to 30° with a step size of 0.02°/−Scanning rate: 1.0°/min)

[2] = Determination of crystallinity by differential scanning calorimetry (DSC); assay type: physicochemical; conditions: raw powder, heating curves
Procedure: Differential scanning calorimetry (DSC) was used to identify a difference in crystallinity between cyclosporine A and OND-1 by determining the melting point, glass transition temperature, and recrystallization of the drugs. DSC measurement conditions were as follows.
DSC (model name: DSC Q2000; manufacturer: TA instruments; purging gas: N2 gas (flow: 70 mL/min); heating rate: 5° C./min; isothermal temperature: 10° C./min; cycle number: 1 (from 20° C. to 200° C.)

[3] = In-vitro skin penetration and skin deposition (Franz diffusion cell); assay type: in vitro ADME; conditions: porcine skin, 200 μg OND-1 in 0.2 ml olive oil, 37° C.
Procedure: A percutaneous absorption diffusion test (Franz diffusion cell) was conducted to determine skin penetration of position 3-substituted cyclosporine derivatives by topical skin application.
Specifically, frozen porcine skin was thawed, followed by removal of subcutaneous fat from the dermis, and then the skin was cut into a disc shape with a diameter of 3 cm. Then, the skin was mounted in a skin permeation device (Franz diffusion, receptor volume: 5 ml, diffusion area: 0.785 cm^2) with the stratum corneum facing an upper donor chamber and the dermis facing a lower receptor chamber. […] Hourly, 500 μl of a receiving solution (PBS containing 0.2% Tween 80, pH: 7.4) was sampled, followed by replenishment with an equal volume of fresh one.
The position 3-substituted cyclosporine derivative in the sampled solution was subjected to quantitative analysis by HPLC, followed by calculation of the average value of five replicates to determine the permeation amount of the position 3-substituted cyclosporine derivative.
After 24 hours of use, the skin was removed from the skin permeation device, washed several times with ethanol, dried, and tape-stripped (10 times with scotch tape) to completely remove any residual drug from the surface thereof. The collected skin samples were lysed by incubation with collagenase type I (Gibco®) solution at 37° C. for 24 hours. Thereafter, samples were obtained by a liquid-liquid phase extraction method using methyl tert-butyl ether (MTBE), followed by quantitative analysis of the position 3-substituted cyclosporine derivative by HPLC to calculate the quantity of drug deposited in the skin.
Details of the liquid-liquid extraction method are as follows. A 200 μl to 400 μl aliquot of each of the lysed skin samples was dispensed, followed by addition of 1.2 ml of MTBE. After high-speed shaking for 10 minutes, an organic solvent layer (1 ml) was separated by centrifugation (13,000 rpm, 3 minutes) and then dried under nitrogen flow for 10 minutes. Thereafter, the organic solvent layer was dissolved with a reconstituted solvent (75% acetonitrile) and filtered through a syringe filter to obtain a sample for analysis.

[4] = Drug remaining at administration site, non-administration site and in blood after topical injection (LC/MS); assay type: in vivo, mice (C57BL/6)
Procedure: Specifically, the drug level in blood was determined by a liquid-liquid extraction method using methyl tert-butyl ether (MTBE) and LC/MS analysis. Preparation of skin samples at a targeted site and a non-administration site and the liquid-liquid-phase extraction method using MTBE were the same as in Experimental Example 9. […] After initially increasing the proportion of mobile phase B to 20% for 3 minutes to equilibrate the mobile phase, the flow rate of the mobile phase was 0.4 ml/min and the sample injection volume was 3 μl. In addition, as a mass spectrometer, a 4000 Q TRAP Mass Spectrometer system from Applied Bioscience was used.

Solubility in water = assay type: physicochemical
[5] = Partition coefficient (log P); assay type: physicochemical

| Compound | XRD pattern [1] | crystallinity by DSC [2] | Penetration rate (μg/cm^2) ([3]; 6 hr) | Penetration rate (μg/cm^2) ([3]; 14 hr) | Penetration rate (μg/cm^2) ([3]; 20 hr) | Penetration rate (μg/cm^2) ([3]; 24 hr) | Analysis of OND-1 level in systemic blood (μg/ml) ([4]; C57BL/6 mice, topical injection of depot solution containing particles of Example 1-B, individual test subjects 1-5) | Quantity of OND-1 remaining at non-administration site (μg/g) ([4]; C57BL/6 mice, topical injection of depot solution containing particles of Example 1-B, skin, individual test subjects 1-5) | OND-1 detected in the skin at the site of topical administration ([4]; mice, topical injection) | OND-1 detected in the surrounding skin or the systemic blood ([4]; mice, topical injection) | solubility (Solubility in water) | logP [5] |
| --- | --- | --- | --- | --- | --- | --- | --- | --- | --- | --- | --- | --- |
| C/C=C/C[C@@H](C)[C@@H](O)[C@H]1C(=O)N[C@@H](CC)C(=O)N(C)[C@H](SC)C(=O)N(C)[C@@H](CC(C)C)C(=O)N[C@@H](C(C)C)C(=O)N(C)[C@@H](CC(C)C)C(=O)N[C@@H](C)C(=O)N[C@H](C)C(=O)N(C)[C@@H](CC(C)C)C(=O)N(C)[C@@H](CC(C)C)C(=O)N(C)[C@@H](C(C)C)C(=O)N1C [OND-1, [D-2-methylthio-Sar^3]cyclosporine A] | amorphous XRD pattern | amorphous | 1.3 μg/cm^2 | 1.1 μg/cm^2 | 0.2 μg/cm^2 | 1.1 μg/cm^2 | Not detected | Not detected | highly detected | rarely detected | 10 µg/mL (≈ 8.01 µM) | 3.84 |
| Cyclosporine A [CsA, reference compound] | crystalline XRD pattern | crystalline | – | – | – | – | – | – | – | – | – | – |
